# Patent US20130005699A1, “METHODS AND PRODUCTS FOR TREATMENT OF DISEASES” (DMI ACQUISITION CORP., priority 2009, published 2013)
# Key:
# RhoA = test: Rho activation assay (GLISA) in retinal endothelial cells; type: cell-based, human
# Protocol: This experiment was performed using a commercially-available Rho activation assay (GLISA) purchased from Cytoskeleton, Denver, Colo., following the manufacturer's protocol. […] Test compounds diluted in HBSS were placed in the incubator to equilibrate before addition to the cells. Then, 150 μl of each test compound was added to the appropriate culture wells, and the plates were incubated in the incubator for an additional 15 minutes. Then, thrombin was added to appropriate wells. After 1 minute, the cells were washed one time with 1.5 ml phosphate buffered saline and were then lysed with 100 μl GLISA lysis buffer supplemented with protease inhibitors. The extracts were scraped, transferred to microcentrifuge tubes and transferred to ice to preserve the active form of RhoA. All extracts were then cleared of debris by spinning at 10,000 rpms for 2 minutes at 4° C. The supernatants were transferred to new tubes and placed back on ice. Aliquots of each extract were removed for the GLISA assay and for protein determinations. All protein concentrations were within 10%, and the extracts were used at the achieved concentrations (equates to 15 μg total protein per well). The GLISA assay was performed using the reagents supplied in the kit.
# HUVECs = test: HUVEC invasion (BioCoat Matrigel Invasion Chambers); type: cell-based, human; settings: 24 hours, 5% FCS; FCS raised 5674 FU±77 to 7143±516; concentration of LY294002 not specified (10 μM and 100 μM tested)
# Protocol: BioCoat Matrigel Invasion Chambers were purchased from BD Biosciences (San Jose, Calif.). Inserts were rehydrated at 37° C. with 500 μl HBSS for 2 hours prior to use in humidified incubator. Trypsinized HUVECs were washed twice with warm EGM-2 containing 0.1% FCS and added to the upper chamber of the invasion insert at 100,000 cells in a total volume of 250 μl. […]. Non-invasive cells were removed from the upper chamber with moistened cotton swabs and then the inserts were washed twice with HBSS. The inserts were then submerged in 10 μM calcein AM prepared in HBSS and incubated for 4 hours. Fluorescence was determined in a microplate reader at 485 nm excitation and 595 nm emission.
# All data is presented as representative experiment done in triplicate. Differences between subsets were analyzed using student t-test in Microsoft Excel. P<0.05 was considered statistically significant.
# [1] = tested on: human retinal endothelial cells; test: TER of retinal endothelial cell monolayers with danazol and steroid receptor antagonists (Example 6); settings: for TER at 30 minutes: None 216.22; for TER at 120 minutes: None 234.23; for TER at 60 minutes: None 249.25; for TER at 24 Hours: None 312.31
# [2] = tested on: human retinal endothelial cells; test: Actin stress fiber formation, rhodamine-phalloidin staining, VEGF (Example 8); type: cell-based; settings: VEGF 25 ng/ml, 30 minutes
# Protocol: . […] To counter-stain for nuclei, 100 μl of a 3 μM DAPI (4,6-diamidino-2-phenylindole, dilactate (Invitrogen)) solution was added to each well. After 5 minutes, the cells were washed two times with 100 μl PBS.
# VE-Cadherin = test: VE-cadherin phosphorylation (immunoprecipitation, Pro-Q diamond / SYPRO ruby densitometry); type: cell-based, human; settings: VEGF 50 ng/ml
# Protocol: The plates were immediately treated to lyse the cells as follows. PBS and the lysis buffer (PBS containing 1% Triton X-100 supplemented with phosphatase inhibitor solutions 1 and 2 (Sigma), protease inhibitor (Sigma) and sodium orthovanadate at a final concentration of 2 mM) were cooled to 4° C. The cells were washed two times with 5 ml of the ice cold PBS and then lysed in 500 μl of the ice cold lysis buffer. The resulting protein extracts were transferred to 1.7 ml microcentrifuge tubes, and cell debris was removed by spinning at 4° C. at 10,000 rpm for 10 minutes. Then, 450 μl of the cleared solution was transferred to tubes containing 25 μl of Protein Dynabeads (Invitrogen) coated with 10 μl C19 anti-VE cadherin polyclonal antibody (Santa Cruz Biotechnology) (coating performed following manufacturer's protocol). The extracts and beads were then incubated overnight at 4° C. on an orbital shaker to capture VE cadherin from the extracts. The beads were then washed four times with ice cold lysis buffer. To release the protein from the beads, they were heated for 10 minutes at 75° C. in SDS loading dye containing 20% reducing dye (Invitrogen).
# The released proteins were separated in 4-20% polyacrylamide gels (Invitrogen) at 120 volts for 1 hour. To determine phosphorylation and total protein in the gels, Pro-Q diamond (Invitrogen) and SYPRO ruby (Invitrogen) protein staining were sequentially performed following the manufacturer's protocol. The gels were photographed and densitometry performed using a Kodak imaging station.
# [3] = tested on: human retinal endothelial cells; test: TER of retinal endothelial cell monolayers with danazol, steroid receptor antagonists and hormones (Example 10); settings: for TER at 5 minutes: None 250.30; for TER at 60 minutes: None 251.00; for TER at 30 minutes: None 262.31; for TER at 24 Hours: None 287.09
# [4] = tested on: human renal glomerular microvascular endothelial cells; test: Actin stress fiber formation (Example 11), glomerular cells
# [5] = tested on: human retinal endothelial cells; test: ECIS resistance (Example 12), retinal cells
# [6] = tested on: human retinal endothelial cells; test: Actin stress fiber formation (Example 11), retinal cells
# [7] = tested on: human retinal endothelial cells; test: Actin stress fiber formation, rhodamine-phalloidin staining, TNFα (Example 7); settings: TNFα 50 ng/ml, 30 minutes
# [8] = passage 8 cells, 0.1 U/ml Thrombin + 10.0 μM compound
# [9] = passage 12 cells, 0.1 U/ml Thrombin + 10.0 μM compound
# [10] = 10.0 μM LY294002, alone or followed by 0.1 μM Danazol
# [11] = 15 minutes, ethanol control 1.00
# [12] = 0.1 μM of each additive, background subtracted, divided by 0.33 cm^2
# [13] = passage 12 cells, 1.0 μM, no thrombin, Untreated 0.455
# [14] = passage 12 cells, 0.1 U/ml Thrombin + 1.0 μM compound
# [15] = 10 nM hormone, alone or followed by 0.1 μM Danazol
# [16] = S1P 1 μM alone, beginning at 15 minutes, strongest at 3 hours
compound,measurement,setting,value
O=c1cc(N2CCOCC2)oc2c(-c3ccccc3)cccc12 [LY294002],Percent Inhibition vs. Untreated Control,"RhoA; passage 8 cells, 10.0 μM",45.32%
same,Mean OD (active RhoA),"RhoA; passage 8 cells, 10.0 μM, no thrombin, Untreated 0.102",0.056
same,Mean OD (active RhoA),RhoA; [8],0.433
same,Percent Inhibition vs. Thrombin,RhoA; [8],27.86%
same,Percent Inhibition vs. Untreated Control,"RhoA; passage 12 cells, 10.0 μM",18.70%
same,Mean OD (active RhoA),"RhoA; passage 12 cells, 10.0 μM, no thrombin, Untreated 0.455",0.370
same,Mean OD (active RhoA),RhoA; [9],0.685
same,Percent Inhibition vs. Thrombin,RhoA; [9],58.73%
same,fluorescence of invaded cells,HUVECs,5814±153 FU
same,TER at 30 minutes,[1]; [10],297.30
same,TER at 120 minutes,[1]; [10],276.28
same,TER at 60 minutes,[1]; [10],354.35
same,TER at 24 Hours,[1]; [10],345.35
VEGF,F-actin staining pattern,[2],strong stress fiber development
same,Ratio phosphorylated: total protein,"VE-Cadherin; 15 minutes, ethanol control 0.215",0.481
same,Relative intensity - ProQ results (phosphorylated protein),VE-Cadherin; [11],1.89
same,Relative intensity - SYPRO results (total protein),VE-Cadherin; [11],0.84
same,fold increase of ratio phosphorylated: total protein,VE-Cadherin; versus ethanol control,(2.24 fold
"CC(C)(O)C(=O)Nc1ccc([N+](=O)[O-])c(C(F)(F)F)c1 [Hydroxyflutamide, hydroxyflutamide]",TER at 5 minutes,[3]; [12],190.44
same,TER at 60 minutes,[3]; [12],215.97
same,TER at 30 minutes,[3]; [12],207.46
same,TER at 24 Hours,[3]; [12],267.27
same,TER at 30 minutes,[1]; [12],177.18
same,TER at 120 minutes,[1]; [12],201.20
same,TER at 60 minutes,[1]; [12],186.19
same,TER at 24 Hours,[1]; [12],297.30
"C[C@]12CC[C@@H]3c4ccc(O)cc4C[C@@H](CCCCCCCCC[S+]([O-])CCCC(F)(F)C(F)(F)F)[C@H]3[C@@H]1CC[C@@H]2O (some centres unmarked) [Fluvestrant, fluvestrant]",TER at 5 minutes,[3]; [12],223.47
same,TER at 60 minutes,[3]; [12],243.99
same,TER at 30 minutes,[3]; [12],251.50
same,TER at 24 Hours,[3]; [12],279.28
same,TER at 30 minutes,[1]; [12],228.23
same,TER at 120 minutes,[1]; [12],258.26
same,TER at 60 minutes,[1]; [12],270.27
same,TER at 24 Hours,[1]; [12],336.34
COc1cc2ncnc(Nc3ccc(Oc4ccccc4)cc3)c2cc1OC [Src-1 Inhibitor],Percent Inhibition vs. Untreated Control,"RhoA; passage 12 cells, 1.0 μM",23.21%
same,Mean OD (active RhoA),RhoA; [13],0.349
same,Mean OD (active RhoA),RhoA; [14],0.534
same,Percent Inhibition vs. Thrombin,RhoA; [14],85.85%
"C[C@]12CC[C@H]3[C@@H](CCC4=CC(=O)CC[C@@]43C)[C@@H]1CC[C@@H]2O [Testosterone, testosterone]",TER at 5 minutes,[3]; [15],257.51
same,TER at 60 minutes,[3]; [15],225.98
same,TER at 30 minutes,[3]; [15],240.49
same,TER at 24 Hours,[3]; [15],267.27
"CCCCCCCCCCCCC/C=C/[C@@H](O)[C@@H](N)COP(=O)(O)O [S1P, sphingosine-1 phosphate]",F-actin staining pattern,[4]; [16],showed actin cortical rings
same,persistence of increased ECIS,"[5]; 1 μM of each compound, monitored for 90 hours",about 3 hours
same,"start of increase of ECIS compared to untreated cells, after treatment",[5]; S1P 1 μM alone,≤ 15 min
same,F-actin staining pattern,[6]; [16],showed actin cortical rings
"C[C@]12CC[C@@H]3c4ccc(O)cc4CC[C@H]3[C@@H]1CC[C@@H]2O [Estradiol, estradiol]",TER at 5 minutes,[3]; [15],246.50
same,TER at 60 minutes,[3]; [15],250.00
same,TER at 30 minutes,[3]; [15],245.50
same,TER at 24 Hours,[3]; [15],328.33
Thrombin,Mean OD (active RhoA),"RhoA; passage 8 cells, 0.1 U/ml Thrombin alone, Untreated 0.102",0.561
same,Mean OD (active RhoA),"RhoA; passage 12 cells, 0.1 U/ml Thrombin alone, Untreated 0.455",1.013
TNFα,F-actin staining pattern,[4]; TNFα 1 ng/ml alone,stress fibers were seen at all times
same,F-actin staining pattern,[7],strong stress fiber development with intensely staining focal points
same,F-actin staining pattern,[6]; TNFα 1 ng/ml alone,stress fibers were seen at all times
"C[C@@H]1C[C@H]2[C@@H]3CCC4=CC(=O)C=C[C@]4(C)[C@@]3(F)[C@@H](O)C[C@]2(C)[C@@]1(O)C(=O)CO [Dexamethasone, dexamethasone]",Percent Inhibition vs. Untreated Control,"RhoA; passage 12 cells, 1.0 μM",5.83%
same,Mean OD (active RhoA),RhoA; [13],0.428
same,Mean OD (active RhoA),RhoA; [14],0.826
same,Percent Inhibition vs. Thrombin,RhoA; [14],33.48%
